As usually defined, the Cmax is the highest concentration seen after dosing. A word on the Tmax: it is the time from dosing to the highest level. In general, half-life refers to how long it takes for the measured level to halve. A lower half-life goes with fast loss. Usually AUC(0-inf) stands for the area under the concentration-time curve extrapolated to infinity. Higher therefore signals high exposure.

The values that follow come from paper PMC2758911 (Clinical cancer research : an official journal of the …, 2009).

SMILES strings stand for the structures.

Data set [1] deals with relapsed/refractory multiple myeloma patients.
For data set [2], the system named is QT interval. As to conditions: cited from earlier work.
A short description of data set [3]: Vorinostat serum pharmacokinetics, day 4 of cycle 1. It counts as in vivo, human. Conditions: for Tmax / half-life / AUC(0-inf) / Cmax: human, po.
The subject of data set [4] is relapsed and refractory myeloma patients. Conditions: cited from earlier work.
Where [5] appears, read: single patient with grade 3 event, baseline QTc 394 msec.
Setting [6] is: vorinostat 400 mg daily, ECG 3 hours after vorinostat.

Regarding `CC(C)C[C@H](NC(=O)[C@H](Cc1ccccc1)NC(=O)c1cnccn1)B(O)O` [bortezomib], the “Bortezomib dose at the MTD of the combination” value in data set [1] (days 1, 4, 8, 11 of 21-day cycle, with vorinostat 400 mg daily for 8 days) was determined as 1.3 mg/m2. Also, the “Patients in whom bortezomib was decreased from 1.3 mg/m2 to 1 mg/m2” value in data set [1] (human, in vivo) was determined as 8 patients.
Take `Cc1[nH]c2ccccc2c1CCNCc1ccc(/C=C/C(=O)NO)cc1` [panobinostat]: in data set [2], the “QTc prolongation in phase I and/or II studies” value is reported as “have shown evidence of QTc prolongation”.
For the molecule `O=C(CCCCCCC(=O)Nc1ccccc1)NO` [vorinostat, suberoylanilide hydroxamic acid], the “QTc prolongation in phase I and/or II studies” value in data set [2] is “have shown evidence of QTc prolongation”. Moreover, the “Cmax at 400 mg versus 500 mg” value in data set [3] (Student t-test, p=0.35) was “not statistically different”. In addition, in data set [3] (doses 100–500 mg), the “Dose proportionality of vorinostat pharmacokinetics (AUC)” value is listed as “the increase was greater than proportional” and the “Serum Cmax versus dose” value was “reached a plateau above 400 mg”. In addition, the “Dose proportionality of vorinostat pharmacokinetics (AUC)” value in data set [3] (doses 100–500 mg, listed as Vorinostat) is “non-linear”. For the same molecule, in data set [3] (serum), the time to peak (Tmax) was in the range of 0.5 to 6 h and the half-life lay within 0.8 to 7.6 h. In data set [3] (serum, 100 mg), the AUC(0-inf) is 760 µM·h, the peak level (Cmax) was 310 µM, the Tmax is 1.3 h and the half-life was 1.3 h. In data set [3] (serum, 200 mg), the area under the curve AUC(0-inf) turned out to be 2030 µM·h, the Cmax came to 650 µM and the Tmax worked out at 1.3 h. In data set [3] (serum, 400 mg), this molecule showed an AUC(0-inf) of 5130 µM·h and a Cmax of 1420 µM. For the same molecule, in data set [3] (serum, 500 mg), the AUC(0-inf) worked out at 8100 µM·h, the highest level (Cmax) was 1330 µM, the Tmax was determined as 3.8 h and the half-life was 4.4 h. Besides, the “Slope of Cl/F (L/min) versus dose (mg)” value in data set [3] (linear regression, p=0.001, CL/F decreased with increasing dose) is listed as −0.014. The “t1/2, mean” value in data set [3] (vorinostat 200 mg BID oral (n=3), serum, day 4 cycle 1, with bortezomib) worked out at 2.4 h. Besides, the “Tolerability and disease stabilization” value in data set [4] (heavily pre-treated population) is “favorable tolerability and evidence of disease stabilization”. In data set [4] (relapsed and refractory myeloma patients), the Single-agent activity entry was “failed to establish significant single-agent activity”. In addition, the “Patients who required a decrease in vorinostat dose for grade 3 diarrhea” value in data set [1] (in vivo) came to 3 patients. Further, the “Maximum tolerated dose (MTD) of vorinostat” value in data set [1] (oral once daily for 8 days (days 4–11) every 21 days, with bortezomib 1.3 mg/m2 days 1, 4, 8, 11) came out at 400 mg. In data set [1] (setting [5]), the cQT after vorinostat was determined as 633 ms and the “cQT at 24 hours” value amounted to 389 ms. For the same molecule, in data set [1] (setting [6]), the “Prolongation of QTc grade 1, patients” value came out at 7 and the “Prolongation of QTc grade 2, patients” value was determined as 2.
